Source: US9969723B2, “3-(4-(benzyloxy)phenyl)hex-4-ynoic acid derivative, method of preparing same and pharmaceutical composition for preventing and treating metabolic disease including same as effective ingredient” (HYUNDAI PHARM CO., LTD, priority 2014, dated 2018)
Read-outs that look alike come from different tables or passages of the source.

Columns and labels:
GPR40 = GPR40 (Homo sapiens (Human), UniProt O14842); test: GPR40 protein activity by intracellular calcium concentration (Fluo-4, Flexstation 3) in transfected HEK-293 cells; type: cell-based; settings: HEK-293 cells transfected with human GPR40, intracellular calcium
GPR40, sequence (O14842 whole entry): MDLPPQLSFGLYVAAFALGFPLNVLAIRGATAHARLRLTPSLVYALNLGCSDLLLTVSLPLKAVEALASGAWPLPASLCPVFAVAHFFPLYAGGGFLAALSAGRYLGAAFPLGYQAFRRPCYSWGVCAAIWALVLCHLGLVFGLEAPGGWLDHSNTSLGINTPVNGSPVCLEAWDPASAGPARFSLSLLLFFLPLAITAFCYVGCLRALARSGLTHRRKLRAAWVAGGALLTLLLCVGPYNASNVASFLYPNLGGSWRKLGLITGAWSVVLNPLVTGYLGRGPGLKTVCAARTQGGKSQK
Protocol: The GPR40 protein activity according to the novel 3-(4-(benzyloxy)phenyl)hex-4-inoic acid derivative of the present invention was measured by investigating the changes in intracellular calcium concentration affected by the GRP40 activation. First, HEK-293 cells were transfected with human GPR40 DNA (Origene, RC218370) by using Fugene HD (Promega, E2311). […] 24 hours later, the cell culture medium was replaced with Dulbecco's Modified Eagle Medium (DMEM, 50 μl/well) supplemented with 1% fetal bovine serum (FBS). To measure the calcium concentration, 50 μl of Fluo-4 reagent (Invitrogen, F10471) was added to each well, followed by culture in a 37° C. incubator for 2 hours. […] 2 hours after the culture began, those prepared samples were automatically injected to the cells by using Flexstation 3 (Molecular Devices). Then, intracellular calcium concentration was measured for 120 seconds by using SoftMax® Pro software. At this time, dimethylsulfoxide (DMSO) was injected to the cells for the non-treated group, followed by measuring the calcium concentration therein. The GPR40 protein activity was calculated by the below mathematical formula 1 with the results of calcium concentration measurement. GPR40 activity=(intracellular calcium concentration increased by the sample)/(intracellular calcium concentration of the non-treated group)×100 [Mathematical Formula 1]

[1] = system: Male OLETF (Otsuka Long-Evans Tokushima fatty) rats, the type II diabetes animal model (obesity); test: Oral glucose tolerance test (OGTT) 3; type: in vivo, rat
Protocol: (§1) Male OLETF (Otsuka Long-Evans Tokushima fatty) rats at 29˜30 weeks, the type II diabetes animal model (obesity), were adapted at least for 7 days. Only healthy animals were selected thereafter, followed by OGTT. After fasting for 16˜18 hours, 5 rats per group were randomly selected and orally administered with the compounds prepared in Examples 5, 9, 14, 28, 37, and 47 at the dose of 1˜10 mg/kg. At this time, 5% polyethyleneglycol (PEG) was orally administered at the same dose to the non-treated group rats. 60 minutes after the sample administration, glucose (4 g/kg) was orally administered thereto at the dose of 5 ml/kg. Then, blood glucose was measured by using Accu-chek active strip (Roche diagnostic Co.). The time for the measurement was set at 60 minutes before the glucose administration (−60), 0 minute, 20 minutes, 40 minutes, 60 minutes, and 120 minutes after the glucose administration, and blood glucose was measured through tail vein puncture.

[2] = system: Male Goto-Kakizaki (GK) rats, the type II diabetes animal model (not obesity); test: Oral glucose tolerance test (OGTT) 2; type: in vivo, rat
Protocol: as §1, with “Goto-Kakizaki (GK)” for “OLETF (Otsuka Long-Evans Tokushima fatty)”, “22˜23” for “29˜30”, “(not obesity),” for “(obesity),”, “0.3˜10” for “1˜10”

CYP3A4 = CYP3A4 (Homo sapiens (Human), UniProt P08684); test: CYP inhibition (BD GENTEST kit); type: in vitro ADME; settings: CYP3A4 enzyme of BD GENTEST inhibition kit, pH 7.4, read-out: CYP inhibition (%) 3A4
CYP3A4, sequence (P08684 whole entry): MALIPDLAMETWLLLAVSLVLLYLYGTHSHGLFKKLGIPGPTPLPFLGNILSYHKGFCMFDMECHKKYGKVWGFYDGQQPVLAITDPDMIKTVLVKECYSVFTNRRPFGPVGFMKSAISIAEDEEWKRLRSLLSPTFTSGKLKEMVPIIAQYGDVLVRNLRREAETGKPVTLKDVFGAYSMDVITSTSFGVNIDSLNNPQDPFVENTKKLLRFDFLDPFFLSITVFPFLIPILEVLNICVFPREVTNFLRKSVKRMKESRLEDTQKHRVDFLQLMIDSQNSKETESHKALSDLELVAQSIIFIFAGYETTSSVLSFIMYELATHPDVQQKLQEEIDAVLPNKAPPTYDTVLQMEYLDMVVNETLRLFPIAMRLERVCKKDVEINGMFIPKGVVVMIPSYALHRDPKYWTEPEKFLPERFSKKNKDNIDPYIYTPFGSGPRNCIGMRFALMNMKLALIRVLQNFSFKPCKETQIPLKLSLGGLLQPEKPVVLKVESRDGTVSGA
Source text: (§2) CYP is the enzyme involved in drug metabolism. So, the inhibition of this enzyme can change the prediction of dose of a drug and toxicity caused by the co-treatment with other drugs. Therefore, the inventors measured the inhibitory effect of the compounds of Examples of the invention on endogenous CYP3A4, CYP2C9, CYP1A2, CYP2D6, and CYP2C19. At this time, Invitrogen (P2862) was used as the CYP2D6 inhibition kit, and BD GENTEST (459100, 459300, 459400, 459500) was used as the CYP1A2, CYP2C9, CYP2C19, and CYP3A4 inhibition kit. To prepare the Invitrogen kit, the test sample was diluted in distilled water at 2.5× of the final experimental concentration.
(§3) The test sample for BD GENTEST kit was diluted in acetonitrile at 50× of the final experimental concentration. NADPH-coenzyme mixture was prepared by diluting the coenzyme, G6PDH, and regulatory protein included in the kit with distilled water at the concentration instructed by the kit. The prepared 50× sample (4 μL) and the NADPH-coenzyme mixture (96 μL) were mixed in each well of U-bottom 96-well plate, followed by pre-culture for 10 minutes in a 37° C. incubator. Enzyme/substrate mixed solution was prepared by diluting the buffer (0.5 M potassium phosphate, pH 7.4), each CYP450 enzyme/substrate mixed solution included in the kit with distilled water at the instructed concentration. Upon completion of the pre-culture, 100 μL of the enzyme/substrate mixed solution was added in each well of the plate, followed by culture in a 37° C. incubator for 15 minutes (CYP 1A2), 30 minutes (CYP 3A4 and CYP 2C19) or 1 and half hours (CYP 2C9). Upon completion of the reaction, the reactant was transferred onto the white plate, and then fluorescence was measured with a microplate reader (CYP 1A2 and CYP 2C19 excitation wavelength: 410 nm, absorption wavelength: 460 nm; CYP 2C9 and CYP 3A4 excitation wavelength: 409 nm, absorption wavelength: 530 nm). The values obtained above were converted into % as the inhibition rate of the sample by the value of the non-treated group.

CYP2D6 = CYP2D6 (Homo sapiens (Human), UniProt P10635); test: CYP inhibition (Invitrogen Vivid kit); type: in vitro ADME; settings: P450 BACULOSOMES reagent (Invitrogen Vivid CYP2D6 kit P2862), probe Vivid CYP450 substrate, read-out: CYP inhibition (%) 2D6
CYP2D6, sequence (P10635 whole entry): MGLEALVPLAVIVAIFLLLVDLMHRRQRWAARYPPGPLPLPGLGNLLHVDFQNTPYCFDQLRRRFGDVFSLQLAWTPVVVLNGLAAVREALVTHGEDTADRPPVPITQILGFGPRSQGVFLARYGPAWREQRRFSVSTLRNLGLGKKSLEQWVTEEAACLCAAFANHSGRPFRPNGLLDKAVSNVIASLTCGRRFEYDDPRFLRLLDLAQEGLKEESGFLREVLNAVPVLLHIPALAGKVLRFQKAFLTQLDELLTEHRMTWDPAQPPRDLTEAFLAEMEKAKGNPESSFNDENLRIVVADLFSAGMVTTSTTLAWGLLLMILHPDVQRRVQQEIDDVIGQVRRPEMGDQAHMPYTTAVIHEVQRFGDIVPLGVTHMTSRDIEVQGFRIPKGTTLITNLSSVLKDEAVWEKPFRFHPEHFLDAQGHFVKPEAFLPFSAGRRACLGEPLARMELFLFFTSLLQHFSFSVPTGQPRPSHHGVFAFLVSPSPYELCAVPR
Source text: as §2
P450 BACULOSOMES® reagent and reproducer (100×) included in Invitrogen kit were diluted in Vivid® CYP450 reaction buffer (2×) at the concentration that matched the target CYP450. The prepared 2.5× sample (80 μL) and the diluted P450 BACULOSOMES® reagent mixture (100 μL) were mixed in each well of U-bottom 96-well plate, followed by pre-culture for 20 minutes. Vivid® CYP450 substrate and NADP+ (100×) were diluted in Vivid® CYP450 reaction buffer (2×) at the concentration that matched the target CYP450 and the substrate. Upon completion of the pre-culture, substrate-NADP (nicotinamide adenine dinucleotide phosphate) mixed solution (20 μL) was added thereto, followed by reaction for 1 hour. Upon completion of the reaction, the reactant was transferred onto the white plate, and then fluorescence was measured with a microplate reader (CYP 2D6 excitation wavelength: 400 nm, absorption wavelength: 502 nm). […]

CYP2C19 = CYP2C19 (Homo sapiens (Human), UniProt P33261); test: CYP inhibition (BD GENTEST kit); type: in vitro ADME; settings: CYP2C19 enzyme of BD GENTEST inhibition kit, pH 7.4, read-out: CYP inhibition (%) 2C19
CYP2C19, sequence (P33261 whole entry): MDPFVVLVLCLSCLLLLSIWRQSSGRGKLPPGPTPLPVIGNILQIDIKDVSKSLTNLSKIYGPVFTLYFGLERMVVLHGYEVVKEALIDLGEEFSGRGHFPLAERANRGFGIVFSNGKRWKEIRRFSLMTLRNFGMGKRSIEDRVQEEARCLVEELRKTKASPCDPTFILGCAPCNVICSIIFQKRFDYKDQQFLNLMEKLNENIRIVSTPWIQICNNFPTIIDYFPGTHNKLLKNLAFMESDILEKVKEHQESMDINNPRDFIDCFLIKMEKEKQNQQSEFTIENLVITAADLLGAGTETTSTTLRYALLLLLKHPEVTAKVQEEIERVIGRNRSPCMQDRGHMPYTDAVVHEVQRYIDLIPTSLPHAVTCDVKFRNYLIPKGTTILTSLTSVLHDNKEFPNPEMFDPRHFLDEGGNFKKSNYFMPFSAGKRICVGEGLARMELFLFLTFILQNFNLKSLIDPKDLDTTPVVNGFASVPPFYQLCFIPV
Protocol: as §2, with “At this time, Invitrogen (P2862) was used as the CYP2D6 inhibition kit, and BD GENTEST (459100, 459300, 459400, 459500) was used as the CYP1A2, CYP2C9, CYP2C19, and CYP3A4 inhibition kit.” left out
as §3, with “Upon completion of the reaction, the reactant was transferred onto the white plate, and then fluorescence was measured with a microplate reader (CYP 1A2 and CYP 2C19 excitation wavelength: 410 nm, absorption wavelength: 460 nm; CYP 2C9 and CYP 3A4 excitation wavelength: 409 nm, absorption wavelength: 530 nm).” left out

CYP2C9 = CYP2C9 (Homo sapiens (Human), UniProt P11712); test: CYP inhibition (BD GENTEST kit); type: in vitro ADME; settings: CYP2C9 enzyme of BD GENTEST inhibition kit, pH 7.4, read-out: CYP inhibition (%) 2C9
CYP2C9, sequence (P11712 whole entry): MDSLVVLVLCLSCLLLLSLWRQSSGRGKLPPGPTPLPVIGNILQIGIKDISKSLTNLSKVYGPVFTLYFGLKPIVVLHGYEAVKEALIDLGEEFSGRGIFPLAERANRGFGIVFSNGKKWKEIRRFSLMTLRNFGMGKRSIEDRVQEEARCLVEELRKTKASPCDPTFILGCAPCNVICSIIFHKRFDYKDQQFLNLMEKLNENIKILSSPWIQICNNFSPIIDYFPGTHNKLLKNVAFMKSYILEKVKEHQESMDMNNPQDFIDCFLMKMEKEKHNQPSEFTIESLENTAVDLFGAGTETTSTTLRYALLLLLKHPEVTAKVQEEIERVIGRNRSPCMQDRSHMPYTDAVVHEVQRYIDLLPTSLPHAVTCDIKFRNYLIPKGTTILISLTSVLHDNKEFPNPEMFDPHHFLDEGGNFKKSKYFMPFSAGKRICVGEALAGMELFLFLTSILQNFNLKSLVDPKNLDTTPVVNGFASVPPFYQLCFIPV
Protocol: as §2, with “At this time, Invitrogen (P2862) was used as the CYP2D6 inhibition kit, and BD GENTEST (459100, 459300, 459400, 459500) was used as the CYP1A2, CYP2C9, CYP2C19, and CYP3A4 inhibition kit.” left out
as §3, with “Upon completion of the reaction, the reactant was transferred onto the white plate, and then fluorescence was measured with a microplate reader (CYP 1A2 and CYP 2C19 excitation wavelength: 410 nm, absorption wavelength: 460 nm; CYP 2C9 and CYP 3A4 excitation wavelength: 409 nm, absorption wavelength: 530 nm).” left out

CYP1A2 = CYP1A2 (Homo sapiens (Human), UniProt P05177); test: CYP inhibition (BD GENTEST kit); type: in vitro ADME; settings: pH 7.4
CYP1A2, sequence (P05177 whole entry): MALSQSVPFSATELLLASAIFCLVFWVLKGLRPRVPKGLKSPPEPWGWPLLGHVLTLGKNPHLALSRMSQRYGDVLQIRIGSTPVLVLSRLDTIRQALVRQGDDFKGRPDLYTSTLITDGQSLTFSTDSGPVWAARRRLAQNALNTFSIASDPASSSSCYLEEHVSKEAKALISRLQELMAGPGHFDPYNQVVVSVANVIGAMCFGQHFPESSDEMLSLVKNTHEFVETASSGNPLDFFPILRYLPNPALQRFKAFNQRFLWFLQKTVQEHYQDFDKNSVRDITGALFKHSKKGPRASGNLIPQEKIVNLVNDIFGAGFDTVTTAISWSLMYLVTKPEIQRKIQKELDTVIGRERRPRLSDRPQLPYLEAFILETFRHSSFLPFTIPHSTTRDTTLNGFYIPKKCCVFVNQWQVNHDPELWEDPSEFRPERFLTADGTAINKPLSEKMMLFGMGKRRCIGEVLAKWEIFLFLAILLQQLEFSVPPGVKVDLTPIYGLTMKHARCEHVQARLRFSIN
Protocol: as §2, with “At this time, Invitrogen (P2862) was used as the CYP2D6 inhibition kit, and BD GENTEST (459100, 459300, 459400, 459500) was used as the CYP1A2, CYP2C9, CYP2C19, and CYP3A4 inhibition kit.” left out
as §3, with “Upon completion of the reaction, the reactant was transferred onto the white plate, and then fluorescence was measured with a microplate reader (CYP 1A2 and CYP 2C19 excitation wavelength: 410 nm, absorption wavelength: 460 nm; CYP 2C9 and CYP 3A4 excitation wavelength: 409 nm, absorption wavelength: 530 nm).” left out

[3] = values in text, read-out: EC50, concentration promoting activation of GPR40 protein by 50%
[4] = oral dose 10 mg/kg, values in text

| Compound | EC50 (GPR40; read-out: EC50) | EC50 (GPR40; [3]) | % AUC ([1]; oral dose 1 mg/kg) | % AUC ([1]; oral dose 3 mg/kg) | % AUC ([1]; oral dose 10 mg/kg) | % AUC ([2]; oral dose 0.3 mg/kg) | % AUC ([2]; oral dose 1 mg/kg) | % AUC ([2]; oral dose 3 mg/kg) | % AUC ([2]; oral dose 10 mg/kg) | inhibition at 30 min, 10 µM (CYP3A4) | inhibition at 1 h, 10 µM (CYP2D6) | inhibition at 30 min, 10 µM (CYP2C19) | inhibition at 1.5 h, 10 µM (CYP2C9) | inhibition at 15 min, 10 µM (CYP1A2) | hypoglycemic effect compared to Comparative Example 1 at 10 mg/kg ([1]; oral dose 1 mg/kg) | hypoglycemic effect compared with the non-treated group [1, 4] | hypoglycemic effect by that of the non-treated group [2, 4] |
| --- | --- | --- | --- | --- | --- | --- | --- | --- | --- | --- | --- | --- | --- | --- | --- | --- | --- |
| CC#C[C@@H](CC(=O)O)c1ccc(OCc2ccc(CN3CC=C(c4ccccc4)CC3)cc2)cc1 [Example 28, (S)-3-(4-(4-((4-phenyl-5,6-dihydropyridine-1(2H)-yl)methyl)benzyloxy)phenyl)hex-4-ynoic acid] | < 200 nM | < 200 nM | B (25.0-35.0%) | B (25.0-35.0%) | B (25.0-35.0%) | C (under 25.0%) | C (under 25.0%) | C (under 25.0%) | B (25.0-35.0%) | – | – | – | – | – | – | – | – |
| CC#CC(CC(=O)O)c1ccc(OCc2cccc(C3=CCC4(CC3)OCCO4)c2)cc1 (centres unmarked) [Example 1, 3-(4-(3-(1,4-dioxaspiro[4,5]dec-7-en-8-yl)benzyloxy)phenyl)hex-4-ynoic acid] | – | – | – | – | – | – | – | – | – | 12.7% | 1.9% | 18.3% | 42.8% | 0% | – | – | – |
| CC#C[C@@H](CC(=O)[O-])c1ccc(OCc2cccc(N3CCN(c4ccc(OC)cc4)CC3)c2)cc1.[Na+] [Example 47, sodium (S)-3-(4-(3-(4-(4-methoxyphenyl)piperazin-1-yl)benzyloxy)phenyl)hex-4-ynoate] | 200 to 300 nM | – | C (under 25.0%) | C (under 25.0%) | B (25.0-35.0%) | C (under 25.0%) | C (under 25.0%) | B (25.0-35.0%) | B (25.0-35.0%) | – | – | – | – | – | – | – | – |
| CC#CC(CC(=O)O)c1ccc(OCc2cccc(C3=CCC(O)CC3)c2)cc1 (centres unmarked) [Example 5, 3-(4-(3-(4-hydroxycyclohex-1-enyl)benzyloxy)phenyl)hex-4-ynoic acid] | 200 to 300 nM | – | B (25.0-35.0%) | B (25.0-35.0%) | A (over 35.0%) | C (under 25.0%) | C (under 25.0%) | C (under 25.0%) | B (25.0-35.0%) | – | – | – | – | – | – | – | – |
| CC#CC(CC(=O)O)c1ccc(OCc2ccc(CN3CC=C(c4ccccc4)CC3)cc2)cc1 (centres unmarked) [Example 14, 3-(4-(4-((4-phenyl-5,6-dihydropyridine-1(2H)-yl)methyl)benzyloxy)phenyl)hex-4-ynoic acid] | < 200 nM | < 200 nM | C (under 25.0%) | B (25.0-35.0%) | B (25.0-35.0%) | C (under 25.0%) | C (under 25.0%) | B (25.0-35.0%) | B (25.0-35.0%) | – | – | – | – | – | – | – | – |
| CC#C[C@@H](CC(=O)[O-])c1ccc(OCc2ccc(CN3Cc4ccccc4C3)cc2)cc1.[Na+] [Example 37, sodium (S)-3-(4-(4-(isoindoline-2-ylmethyl)benzyloxy)phenyl)hex-4-ynoate] | – | – | A (over 35.0%) | A (over 35.0%) | A (over 35.0%) | C (under 25.0%) | B (25.0-35.0%) | B (25.0-35.0%) | A (over 35.0%) | – | – | – | – | – | higher hypoglycemic effect | more than 35.0% | more than 35.0% |
| CC#C[C@@H](CC(=O)O)c1ccc(OCc2ccc(CN3CC=C(c4ccc(F)cc4)CC3)cc2)cc1 [Example 39, (S)-3-(4-(4-((4-(4-fluorophenyl)-5,6-dihydropyridine-1(2H)-yl)methyl)benzyloxy)phenyl)hex-4-ynoic acid] | 200 to 300 nM | – | – | – | – | – | – | – | – | – | – | – | – | – | – | – | – |
